Test results published in ChEMBL document CHEMBL1909294, “Translating clinical findings into knowledge in drug safety evaluation--drug induced liver injury prediction system (DILIps)” (PLoS Comput Biol, 2011).

Assays:
Hepatotoxicity [1] = tested on: Hepatotoxicity;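 as to HepSE Combined Scores: combined hepatic side effect score as listed in the training data of the Drug Induced Liver Injury Prediction System (DILIps)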;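 as to HepSE bilirubinemia: bilirubinemia hepatic side effect score drawn from the DILIps training data, a prediction system for drug-induced liver injury; call rule not given here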;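 as to HepSE cholecystitis: Cholecystitis-related hepatic side effect score drawn from the DILIps (drug-induced liver injury prediction) training data set; call rule not given here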;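 as to HepSE cirrhosis: cirrhosis hepatic side effect score taken from the DILIps (drug-induced liver injury prediction) training set; call rule not given here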; as to HepSE hepatic failure: call rule not given here;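 as to HepSE hepatomegaly: hepatic side effect score for hepatomegaly, taken from the training set of the DILIps drug-induced liver injury prediction system; call rule not given here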; as to HepSE liver disease: call rule not given here
Hepatotoxicity [2] = tested on: Hepatotoxicity; remark: listed apart in the source;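 as to HepSE Combined Scores: combined hepatic side effect score as listed in the training data of the Drug Induced Liver Injury Prediction System (DILIps)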;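 as to HepSE bilirubinemia: bilirubinemia hepatic side effect score drawn from the DILIps training data, a prediction system for drug-induced liver injury; call rule not given here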;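 as to HepSE cholecystitis: Cholecystitis-related hepatic side effect score drawn from the DILIps (drug-induced liver injury prediction) training data set; call rule not given here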;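 as to HepSE cirrhosis: cirrhosis hepatic side effect score taken from the DILIps (drug-induced liver injury prediction) training set; call rule not given here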; as to HepSE hepatic failure: call rule not given here;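 as to HepSE hepatomegaly: hepatic side effect score for hepatomegaly, taken from the training set of the DILIps drug-induced liver injury prediction system; call rule not given here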; as to HepSE liver disease: call rule not given here
Hepatotoxicity [3] = tested on: Hepatotoxicity; remark: listed apart in the source;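 as to HepSE Combined Scores: combined hepatic side effect score as listed in the training data of the Drug Induced Liver Injury Prediction System (DILIps)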;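 as to HepSE bilirubinemia: bilirubinemia hepatic side effect score drawn from the DILIps training data, a prediction system for drug-induced liver injury; call rule not given here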;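 as to HepSE cholecystitis: Cholecystitis-related hepatic side effect score drawn from the DILIps (drug-induced liver injury prediction) training data set; call rule not given here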;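 as to HepSE cirrhosis: cirrhosis hepatic side effect score taken from the DILIps (drug-induced liver injury prediction) training set; call rule not given here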; as to HepSE hepatic failure: call rule not given here;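 as to HepSE hepatomegaly: hepatic side effect score for hepatomegaly, taken from the training set of the DILIps drug-induced liver injury prediction system; call rule not given here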; as to HepSE liver disease: call rule not given here
Hepatotoxicity [4] = tested on: Hepatotoxicity; remark: listed apart in the source;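 as to HepSE Combined Scores: combined hepatic side effect score as listed in the training data of the Drug Induced Liver Injury Prediction System (DILIps)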;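 as to HepSE bilirubinemia: bilirubinemia hepatic side effect score drawn from the DILIps training data, a prediction system for drug-induced liver injury; call rule not given here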;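 as to HepSE cholecystitis: Cholecystitis-related hepatic side effect score drawn from the DILIps (drug-induced liver injury prediction) training data set; call rule not given here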;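 as to HepSE cirrhosis: cirrhosis hepatic side effect score taken from the DILIps (drug-induced liver injury prediction) training set; call rule not given here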; as to HepSE hepatic failure: call rule not given here;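 as to HepSE hepatomegaly: hepatic side effect score for hepatomegaly, taken from the training set of the DILIps drug-induced liver injury prediction system; call rule not given here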; as to HepSE liver disease: call rule not given here
Hepatotoxicity [5] = tested on: Hepatotoxicity; remark: listed apart in the source; as to HepSE hepatic failure: call rule not given here; as to HepSE liver disease: call rule not given here
Hepatotoxicity [6] = tested on: Hepatotoxicity; remark: listed apart in the source; as to HepSE hepatic failure: call rule not given here; as to HepSE liver disease: call rule not given here
Hepatotoxicity [7] = tested on: Hepatotoxicity; remark: listed apart in the source
Hepatotoxicity [8] = tested on: Hepatotoxicity; remark: listed apart in the source
Hepatotoxicity [9] = tested on: Hepatotoxicity; remark: listed apart in the source
Hepatotoxicity [10] = tested on: Hepatotoxicity; remark: listed apart in the source
Hepatotoxicity [11] = tested on: Hepatotoxicity; remark: listed apart in the source
Hepatotoxicity [12] = tested on: Hepatotoxicity; remark: listed apart in the source
Hepatotoxicity [13] = tested on: Hepatotoxicity; remark: listed apart in the source
Hepatotoxicity [14] = tested on: Hepatotoxicity; remark: listed apart in the source

SMILES	HepSE_liver disease (Hepatotoxicity [1])	HepSE_hepatic failure (Hepatotoxicity [2])	HepSE_cholecystitis (Hepatotoxicity [3])	HepSE_hepatomegaly (Hepatotoxicity [4])	HepSE_Combined Scores (Hepatotoxicity [5])	HepSE_bilirubinemia (Hepatotoxicity [6])	HepSE_cirrhosis (Hepatotoxicity [7])	HepSE_liver fatty (Hepatotoxicity [8])	HepSE_hepatic necrosis (Hepatotoxicity [9])	HepSE_cholelithiasis (Hepatotoxicity [10])	HepSE_jaundice (Hepatotoxicity [11])	HepSE_liver function tests abnormal (Hepatotoxicity [12])	HepSE_elevated liver function tests (Hepatotoxicity [13])	HepSE_hepatitis (Hepatotoxicity [14])	further results
Oc1ccc(C2CNCCc3c2cc(O)c(O)c3Cl)cc1 (stereo not drawn) [FENOLDOPAM]	0	0	0	0	0	0	0	0	0	0	0	0	0	0	
Nc1ccc(S(=O)(=O)c2ccc(N)cc2)cc1 [DAPSONE]															HepSE_liver disease (Hepatotoxicity [1]; Liver): 0; HepSE_hepatic failure (Hepatotoxicity [2]; Liver): 0; HepSE_cholecystitis (Hepatotoxicity [3]; Liver): 0; HepSE_hepatomegaly (Hepatotoxicity [4]; Liver): 0; HepSE_Combined Scores (Hepatotoxicity [5]; Liver): 0; HepSE_bilirubinemia (Hepatotoxicity [6]; Liver): 0; HepSE_cirrhosis (Hepatotoxicity [7]; Liver): 0; HepSE_liver fatty (Hepatotoxicity [8]; Liver): 0; HepSE_hepatic necrosis (Hepatotoxicity [9]; Liver): 0; HepSE_cholelithiasis (Hepatotoxicity [10]; Liver): 0; HepSE_jaundice (Hepatotoxicity [11]; Liver): 0; HepSE_liver function tests abnormal (Hepatotoxicity [12]; Liver): 0; HepSE_elevated liver function tests (Hepatotoxicity [13]; Liver): 0; HepSE_hepatitis (Hepatotoxicity [14]; Liver): 0
[H]/N=C(/N)N[C@H]1[C@H](O)[C@@H](O)[C@H](O[C@@H]2O[C@@H](C)[C@](O)(C=O)[C@H]2O[C@@H]2O[C@@H](CO)[C@H](O)[C@@H](O)[C@@H]2NC)[C@@H](N/C(N)=N\[H])[C@@H]1O [STREPTOMYCIN]															HepSE_liver disease (Hepatotoxicity [1]; Liver): 0; HepSE_hepatic failure (Hepatotoxicity [2]; Liver): 0; HepSE_cholecystitis (Hepatotoxicity [3]; Liver): 0; HepSE_hepatomegaly (Hepatotoxicity [4]; Liver): 0; HepSE_Combined Scores (Hepatotoxicity [5]; Liver): 0; HepSE_bilirubinemia (Hepatotoxicity [6]; Liver): 0; HepSE_cirrhosis (Hepatotoxicity [7]; Liver): 0; HepSE_liver fatty (Hepatotoxicity [8]; Liver): 0; HepSE_hepatic necrosis (Hepatotoxicity [9]; Liver): 0; HepSE_cholelithiasis (Hepatotoxicity [10]; Liver): 0; HepSE_jaundice (Hepatotoxicity [11]; Liver): 0; HepSE_liver function tests abnormal (Hepatotoxicity [12]; Liver): 0; HepSE_elevated liver function tests (Hepatotoxicity [13]; Liver): 0; HepSE_hepatitis (Hepatotoxicity [14]; Liver): 0
CC(=O)OCC(=O)[C@@]12OC(C)(C)O[C@@H]1C[C@H]1[C@@H]3C[C@H](F)C4=CC(=O)C=C[C@]4(C)[C@@]3(F)[C@@H](O)C[C@@]12C [FLUOCINONIDE]	0	0	0	0	0	0	0	0	0	0	0	0	0	0	
COc1cc2c(cc1OC)C(=O)C(CC1CCN(Cc3ccccc3)CC1)C2 (stereo not drawn) [DONEPEZIL]	0	0	1	0	6	1	0	0	0	1	1	1	0	1	
CC(=O)O.CCNC(=O)[C@@H]1CCCN1C(=O)[C@H](CCCNC(=N)N)NC(=O)[C@H](CC(C)C)NC(=O)[C@@H](CC(C)C)NC(=O)[C@H](Cc1ccc(O)cc1)NC(=O)[C@H](CO)NC(=O)[C@H](Cc1c[nH]c2ccccc12)NC(=O)[C@H](Cc1c[nH]cn1)NC(=O)[C@@H]1CCC(=O)N1 [LEUPROLIDE ACETATE]	0	0	0	1	2	0	0	0	0	0	0	1	0	0	
CCOc1cc(CC(=O)N[C@@H](CC(C)C)c2ccccc2N2CCCCC2)ccc1C(=O)O [REPAGLINIDE]	0	0	0	0	2	0	0	0	0	0	1	0	0	1	
CC12CC3CC(C)(C1)CC(N)(C3)C2 [MEMANTINE]	0	1	0	0	3	0	0	0	0	1	0	0	0	1	
COC1=CC(=O)C[C@@H](C)[C@]12Oc1c(Cl)c(OC)cc(OC)c1C2=O [GRISEOFULVIN]	0	0	0	0	0	0	0	0	0	0	0	0	0	0	
COc1ccc(CC2c3cc(OC)c(OC)cc3CC[N+]2(C)CCC(=O)OCCCCCOC(=O)CC[N+]2(C)CCc3cc(OC)c(OC)cc3C2Cc2ccc(OC)c(OC)c2)cc1OC (stereo not drawn)	0	0	0	0	0	0	0	0	0	0	0	0	0	0	
NS(=O)(=O)Cc1noc2ccccc12 [ZONISAMIDE]	0	0	1	0	3	0	0	0	0	1	1	0	0	0	
CC(C)(Oc1ccc(CCNC(=O)c2ccc(Cl)cc2)cc1)C(=O)O [BEZAFIBRATE]	0	0	0	0	1	0	0	0	0	1	0	0	0	0	
